Data set [1] has as its target T1, Sodium/glucose cotransporter 2 (Homo sapiens, UniProt P31639).
T1 sequence (P31639 whole entry): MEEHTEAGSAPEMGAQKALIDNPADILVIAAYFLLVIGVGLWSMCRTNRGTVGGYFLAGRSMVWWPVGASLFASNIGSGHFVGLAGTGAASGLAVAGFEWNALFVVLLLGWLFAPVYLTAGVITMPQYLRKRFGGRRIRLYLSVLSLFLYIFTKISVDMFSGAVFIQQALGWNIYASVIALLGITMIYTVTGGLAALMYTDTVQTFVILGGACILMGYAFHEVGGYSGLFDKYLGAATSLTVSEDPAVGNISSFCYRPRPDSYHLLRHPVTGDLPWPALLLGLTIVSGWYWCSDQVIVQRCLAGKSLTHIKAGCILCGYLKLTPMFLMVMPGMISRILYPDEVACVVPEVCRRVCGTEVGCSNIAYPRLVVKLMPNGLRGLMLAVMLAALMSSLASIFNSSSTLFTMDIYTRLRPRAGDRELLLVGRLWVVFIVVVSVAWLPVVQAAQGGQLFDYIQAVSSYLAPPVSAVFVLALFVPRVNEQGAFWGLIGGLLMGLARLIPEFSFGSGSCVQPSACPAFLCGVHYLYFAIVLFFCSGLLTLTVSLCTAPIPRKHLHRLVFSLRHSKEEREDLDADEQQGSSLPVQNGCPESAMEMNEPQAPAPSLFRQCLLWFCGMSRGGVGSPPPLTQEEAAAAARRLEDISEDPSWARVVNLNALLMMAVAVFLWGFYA
As to the kind of experiment: Inhibition of human SGLT2 expressed in CHO cells assessed as inhibition of [14C] labeled AMG accumulation incubated for 15 mins. Format: cell-based.

The target of data set [2] is T1, Sodium/glucose cotransporter 2. The data set can be described thus: Inhibition of human SGLT2.
Data set [3] shares this target. The data set can be described thus: Inhibition of recombinant human SGLT2 expressed in COS-7 cells assessed as inhibition of [14C]AMG uptake. It counts as cell-based.
Data set [4] shares this target. As to the kind of experiment: Inhibition of human SGLT2 expressed in CHO-K1 cells. It counts as cell-based.
Data set [5] deals with T2, Sodium/glucose cotransporter 1 (Homo sapiens, UniProt P13866).
T2 sequence (P13866 whole entry): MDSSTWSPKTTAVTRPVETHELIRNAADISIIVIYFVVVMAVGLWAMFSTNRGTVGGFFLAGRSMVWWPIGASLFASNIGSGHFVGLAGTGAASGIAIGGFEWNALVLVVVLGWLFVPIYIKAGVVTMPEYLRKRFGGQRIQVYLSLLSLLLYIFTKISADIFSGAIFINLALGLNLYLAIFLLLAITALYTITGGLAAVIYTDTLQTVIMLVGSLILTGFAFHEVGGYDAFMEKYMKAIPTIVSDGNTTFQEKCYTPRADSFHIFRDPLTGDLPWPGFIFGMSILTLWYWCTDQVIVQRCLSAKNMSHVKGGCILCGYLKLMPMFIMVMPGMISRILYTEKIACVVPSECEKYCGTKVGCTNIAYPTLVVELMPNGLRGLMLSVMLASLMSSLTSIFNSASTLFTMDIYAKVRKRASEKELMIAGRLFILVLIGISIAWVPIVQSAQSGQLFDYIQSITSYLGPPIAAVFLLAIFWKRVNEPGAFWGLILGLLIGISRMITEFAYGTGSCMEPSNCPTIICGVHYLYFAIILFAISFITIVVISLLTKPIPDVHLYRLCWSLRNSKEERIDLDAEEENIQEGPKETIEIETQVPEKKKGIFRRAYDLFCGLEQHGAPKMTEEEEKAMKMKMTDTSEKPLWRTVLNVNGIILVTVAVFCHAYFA
As to the kind of experiment: Inhibition of human SGLT1 expressed in CHO cells assessed as inhibition of [14C] labeled AMG accumulation incubated for 15 mins. Format: cell-based.

Data set [6] deals with T1, Sodium/glucose cotransporter 2. As to the kind of experiment: Inhibition of human SGLT2 expressed in xenopus oocytes assessed as inhibition of [14C]AMG uptake. Format: cell-based, Oocyte.
Data set [7] shares this target. The data set can be described thus: Inhibition of full length N-terminal HA-tagged human SGLT2 expressed in HEK293 cells assessed as inhibition of [14C]AMG uptake. Format: cell-based.
Data set [8] concerns the target T2, Sodium/glucose cotransporter 1. As to the kind of experiment: Inhibition of full length N-terminal HA-tagged human SGLT1 expressed in HEK293 cells assessed as inhibition of [14C]AMG uptake. Format: cell-based.
Data set [9] in a line: Half life in C57BL/6J mouse at 10 mg/kg,po measured upto 24 hrs by LC-MS/MS analysis. It counts as ADME, organism-based. As to conditions: in vivo.
Data set [10] is described as follows: Oral bioavailability in C57BL/6J mouse at 10 mg/kg measured upto 24 hrs by LC-MS/MS analysis. Conditions: in vivo. It counts as ADME, organism-based.
For a further data set, the species on record is Homo sapiens. As to the kind of experiment: Selectivity ratio of IC50 for full length N-terminal HA-tagged human SGLT1 expressed in HEK293 cells to IC50 for full length N-terminal HA-tagged human SGLT2 expressed in HEK293 cells. It counts as cell-based.

Usually EC50 stands for the concentration at which the effect is half-maximal. Turning to `O/N=C/[C@H]1O[C@@H](n2cc(Cc3ccc(C4CC4)cc3)c3c(Cl)cccc32)[C@H](O)[C@@H](O)[C@@H]1O`, in [1], the half-maximal effective concentration (EC50) was found to be 0.212 µM.

As usually defined, the IC50 is the concentration that gives 50% inhibition. `CCOc1ccc(Cc2cc([C@H]3O[C@@H](SC)[C@H](O)[C@@H](O)[C@@H]3O)ccc2Cl)cc1` came in with an IC50 in [2] of 0.0018 µM.

Take `CO/N=C/[C@H]1O[C@@H](n2cc(Cc3ccc(C4CC4)cc3)c3c(Cl)cccc32)[C@H](O)[C@@H](O)[C@@H]1O`: in data set [1], the EC50 is 0.286 µM.

For orientation: Ki means the equilibrium dissociation constant of an inhibitor or competing ligand from its target. In the case of `Cc1cc(OCCCNCCC(N)=O)ccc1Cc1c(O[C@@H]2O[C@H](CO)[C@@H](O)[C@H](O)[C@H]2O)n[nH]c1C(C)C`, the Ki in data set [3] amounted to 13.6 µM.

As for `CCOC(=O)OC[C@H]1O[C@@H](Oc2ccccc2Cc2ccc(OC)cc2)[C@H](O)[C@@H](O)[C@@H]1O` [SERGLIFLOZIN ETABONATE], the inhibition constant Ki in [4] was determined as 0.151 µM.

Regarding `CONC[C@H]1O[C@@H](n2cc(Cc3ccc(C4CC4)cc3)c3c(Cl)cccc32)[C@H](O)[C@@H](O)[C@@H]1O`, the EC50 in data set [1] was found to be 0.455 µM.

Consider `CC(=O)NNC[C@H]1O[C@@H](n2cc(Cc3ccc(C4CC4)cc3)c3c(Cl)cccc32)[C@H](O)[C@@H](O)[C@@H]1O`, for which the concentration giving a half-maximal response (EC50) in data set [1] is 0.033 µM; in data set [5], 0.037 µM.

As to `Cc1cc(O)c(C(=O)CCc2ccc3occc3c2)c(O[C@@H]2O[C@H](CO)[C@@H](O)[C@H](O)[C@H]2O)c1`, in data set [6], the EC50 was found to be 0.0052 µM.

As to `O=C(N/N=C/[C@H]1O[C@@H](n2cc(Cc3ccc(C4CC4)cc3)c3c(Cl)cccc32)[C@H](O)[C@@H](O)[C@@H]1O)c1ccccc1`, in data set [1], the EC50 came to 0.258 µM.

In the case of `COC(=O)NNC[C@H]1O[C@@H](n2cc(Cc3ccc(C4CC4)cc3)c3c(Cl)cccc32)[C@H](O)[C@@H](O)[C@@H]1O`, in [1], the concentration for a half-maximal effect (EC50) came out at 0.063 µM.

As a reminder, the half-life is how long it takes for the measured level to halve. By bioavailability is commonly meant dose-corrected exposure relative to a reference, in per cent. The low end stands for poor availability, the high end for good availability. `COc1ccc(Cc2cc([C@H]3O[C@@H](SC)[C@H](O)[C@@H](O)[C@@H]3O)ccc2Cl)cc1`: the 50% inhibitory concentration (IC50) worked out at 0.0021 µM in data set [7] and 0.0159 µM in data set [8]. In [9], this compound had a half-life of 7 h. The compound further had a bioavailability in [10] of 87%. For the same compound, in the data set listed under Homo sapiens, the Ratio IC50 was 7.6.

The values above are taken from ChEMBL document CHEMBL5126606, “Sodium-Glucose Cotransporter Inhibitors as Antidiabetic Drugs: Current Development and Future Perspectives” (J Med Chem, 2022).
